# Legend:
# [1] = tested on: store-operated Ca^2+ entry in HEK 293; test: Store-operated Ca2+ entry in HEK 293 cell line; format: cell-based; conditions: for Effect on amplitude of SOCE peak: % of inhibition (−) or activation
# Procedure: The effects of the molecules developed were tested on PLP-B lymphocytes. Store-operated Ca^2+ entry was induced by depletion of Endoplasmic Reticulum Ca^2+ stores (ER Ca^2+ stores) with thapsigargin (Tg) in a Ca^2+-free medium and measured following the addition of 1.8 mM of CaCl2) in the extracellular medium. The results are compared to the results obtained for known SOCE inhibitors SKF-96365, GSK-7975A, Synta 66.
# Then, effects of the molecule that gave the best results in this test (i.e., molecule 6αa) were assessed in two cancer cell lines, namely: HEK 293 and HEK 651 HS1 tumor cell lines.
# HUVEC cells = test: HUVEC cell death (Annexin/Propidium Iodide, flow cytometry); format: cell-based; conditions: HUVEC (FIG. 8)
# Procedure: FIG. 8. In vitro Effects of 6αa, GSK-7975-A and SKF-93365 on HUVEC Cell Death. […] Cell death was analyzed by flow cytometry following Annexin/Propidium Iodide labeling. Percentages of living cells, necrotic cells and apoptotic cells submitted to GSK-7975A (A), SKF-93365 (B), and 6αa (DAD 3-473) (C) treatment were normalized to the DMSO treatment conditions. Histograms present the amounts of apoptotic cells (annexin/PI positive cells) detected in each experimental condition after treatment with GSK-7975A (D), SKF-93365 (E), and 6αa (DAD 3-473) (F). Data are expressed as mean±SEM of n observations (n=2). Data are analyzed with non parametric Mann Withney analysis, *P<0.05, **P<0.01 and ***P<0.001.
structure (smiles),measurement,setting,value
"COc1ccc(CCOc2ccc(CCn3cnc4ccccc43)cc2)cc1 [6αa DAD 3-473, 1-[4-(4-Methoxyphenethoxy)phenethyl]-1H-benzo[d]imidazole]",Effect on amplitude of SOCE peak,[1]; 1 μM,8%
same,Effect on amplitude of SOCE peak,[1]; 5 μM,−15%
same,Effect on amplitude of SOCE peak,[1]; 10 μM,−73%
same,Effect on amplitude of SOCE peak,[1]; 50 μM,−91%
same,IC50,"[1]; Homo sapiens, HEK293, average of three assays, ±0.5 μM",5.1 µM
same,death of HUVEC cells,HUVEC cells,does not induce death
same,apoptosis or necrosis of cells,"HUVEC cells; 5 or 20 μM, treated for 48 hours",do not induce apoptosis or necrosis

# Source: patent publication US12686664B2, “SOCE inhibitors and therapeutic uses thereof” (Institut National de la Santé et de la Recherche Médicale …, priority 2020, dated 2026)
